Counter-ions that a name gives are not always drawn.
Columns and labels:
S-3769 strain = test: Combinational effect with antibacterial agent against Pseudomonas aeruginosa (Test Examples 2 and 4): S-3769 strain with AMK or GM at 1/4 MIC, EC99; type: cell-based; settings: S-3769 strain, Test Example 4; for EC99, combinational effect with AMK, S-3769 strain: combined with AMK at 1/4 MIC; for EC99, combinational effect with GM, S-3769 strain: combined with GM at 1/4 MIC
Summary of the method: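 EC99, the lowest test-compound concentration inhibiting growth by ≥99% (OD595), was measured with aminoglycoside AMK or GM held at ¼ MIC. Strain S-3769, a MexY-overexpressing clinical isolate, was cultured in CAMHB at 10^4 to 5 CFU/well for 16–20 h; compound range 0–800 μM.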

mexB (PA) strain = test: Combinational effect with antibacterial agent against Pseudomonas aeruginosa (Test Examples 2 and 4): mexB (PA) strain with LVFX, TC or AZT at 1/4 MIC, EC99; type: cell-based; settings: mexB (PA) strain, Test Example 4; for EC99, combinational effect with AZT, mexB (PA): combined with AZT at 1/4 MIC; for EC99, combinational effect with LVFX, mexB (PA): combined with LVFX at 1/4 MIC; for EC99, combinational effect with TC, mexB (PA): combined with TC at 1/4 MIC
Summary of the method: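 EC99 denotes the minimum test-compound concentration (range 0–800 μM) that suppresses ≥99% of growth, measured by OD595, when combined with ¼ MIC levofloxacin (LVFX), tetracycline or aztreonam. The efflux-pump mutant mexB (PA), expressing mainly MexAB-OprM, was inoculated at 10^4–5 CFU/well in CAMHB for 16–20 h.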

CCOc1cccc(F)c1CN1CCN(C(=O)[C@H](N)C2CCN(CCc3cc(Cl)ccc3-c3cc(Cl)ccc3O)CC2)CC1 [Example 580, Hydrochloride of (R)-2-amino-2-(1-(2-(4,5′-dichloro-2′-hydroxy-[1,1-biphenyl]-2-yl)ethyl)piperidin-4-yl)-1-(4-(2-ethoxy-6-fluorobenzyl)piperazin-1-yl)ethan-1-one]
A (12.5 μM<EC99≤25 μM): EC99, combinational effect with GM, S-3769 strain (S-3769 strain) | EC99, combinational effect with AZT, mexB (PA) (mexB (PA) strain) | EC99, combinational effect with TC, mexB (PA) (mexB (PA) strain)
S (EC99≤12.5 μM): EC99, combinational effect with AMK, S-3769 strain (S-3769 strain) | EC99, combinational effect with LVFX, mexB (PA) (mexB (PA) strain)

CCOc1cccc(F)c1CN1CCN(C(=O)[C@H](N)C2CCN(CCc3cc(Cl)ccc3-c3cccc(F)c3O)CC2)CC1 [Example 581, Hydrochloride of (R)-2-amino-2-(1-(2-(4-chloro-3′-fluoro-2′-hydroxy-[1,1-biphenyl]-2-yl)ethyl)piperidin-4-yl)-1-(4-(2-ethoxy-6-fluorobenzyl)piperazin-1-yl)ethan-1-one]
A (12.5 μM<EC99≤25 μM): EC99, combinational effect with AMK, S-3769 strain (S-3769 strain) | EC99, combinational effect with GM, S-3769 strain (S-3769 strain) | EC99, combinational effect with LVFX, mexB (PA) (mexB (PA) strain)
B (25 μM<EC99≤100 μM): EC99, combinational effect with AZT, mexB (PA) (mexB (PA) strain) | EC99, combinational effect with TC, mexB (PA) (mexB (PA) strain)

CCOc1cccc(F)c1CN1CCN(C(=O)[C@H](N)C2CCN(CCc3cc(Cl)ccc3-c3cc(O)cc(F)c3)CC2)CC1 [Example 583, Hydrochloride of (R)-2-amino-2-(1-(2-(4-chloro-3′-fluoro-5′-hydroxy-[1,1-biphenyl]-2-yl)ethyl)piperidin-4-yl)-1-(4-(2-ethoxy-6-fluorobenzyl)piperazin-1-yl)ethan-1-one]
S (EC99≤12.5 μM): EC99, combinational effect with AMK, S-3769 strain (S-3769 strain) | EC99, combinational effect with GM, S-3769 strain (S-3769 strain) | EC99, combinational effect with LVFX, mexB (PA) (mexB (PA) strain)
A (12.5 μM<EC99≤25 μM): EC99, combinational effect with AZT, mexB (PA) (mexB (PA) strain) | EC99, combinational effect with TC, mexB (PA) (mexB (PA) strain)

CCOc1cccc(F)c1CN1CCN(C(=O)[C@H](N)C2CCN(CCc3cc(Cl)ccc3-c3cc(O)cc(Cl)c3)CC2)CC1 [Example 584, (R)-2-amino-2-(1-(2-(3′,4-dichloro-5′-hydroxy-[1,1′-biphenyl]-2-yl)ethyl)piperidin-4-yl)-1-(4-(2-ethoxy-6-fluorobenzyl)piperazin-1-yl)ethan-1-one]
S (EC99≤12.5 μM): EC99, combinational effect with AMK, S-3769 strain (S-3769 strain) | EC99, combinational effect with GM, S-3769 strain (S-3769 strain) | EC99, combinational effect with AZT, mexB (PA) (mexB (PA) strain) | EC99, combinational effect with LVFX, mexB (PA) (mexB (PA) strain) | EC99, combinational effect with TC, mexB (PA) (mexB (PA) strain)

CCOc1cccc(F)c1CN1CCN(C(=O)[C@H](N)C2CCN(CCc3cc(Cl)ccc3-c3cc(O)ccc3F)CC2)CC1 [Example 585, (R)-2-amino-2-(1-(2-(4-chloro-2′-fluoro-5′-hydroxy-[1,1′-biphenyl]-2-yl)ethyl)piperidin-4-yl)-1-(4-(2-ethoxy-6-fluorobenzyl)piperazin-1-yl)ethan-1-one]
S (EC99≤12.5 μM): EC99, combinational effect with AMK, S-3769 strain (S-3769 strain) | EC99, combinational effect with GM, S-3769 strain (S-3769 strain) | EC99, combinational effect with AZT, mexB (PA) (mexB (PA) strain) | EC99, combinational effect with LVFX, mexB (PA) (mexB (PA) strain) | EC99, combinational effect with TC, mexB (PA) (mexB (PA) strain)

CCOc1cccc(F)c1CN1CCN(C(=O)[C@H](N)C2CCN(CCc3cc(Cl)ccc3-c3cc(O)ccc3Cl)CC2)CC1 [Example 586, Hydrochloride of (R)-2-amino-2-(1-(2-(2′,4-dichloro-5′-hydroxy-[1,1-biphenyl]-2-yl)ethyl)piperidin-4-yl)-1-(4-(2-ethoxy-6-fluorobenzyl)piperazin-1-yl)ethan-1-one]
A (12.5 μM<EC99≤25 μM): EC99, combinational effect with AMK, S-3769 strain (S-3769 strain)
S (EC99≤12.5 μM): EC99, combinational effect with GM, S-3769 strain (S-3769 strain) | EC99, combinational effect with AZT, mexB (PA) (mexB (PA) strain) | EC99, combinational effect with LVFX, mexB (PA) (mexB (PA) strain) | EC99, combinational effect with TC, mexB (PA) (mexB (PA) strain)

From US20250326744A1, “PIPERAZINE DERIVATIVE OR SALT THEREOF, AND PHARMACEUTICAL COMPOSITION” (priority 2022, published 2025)
